{"source": "patent US20050130252A1", "about": "“Stabilized susceptibility tests of aerobic pathogens” (Wyeth Holdings Corporation, priority 2003, published 2005)", "assay_in_all_cases": "Broth microdilution MIC", "key": {"E. coli ATCC 25922": {"system": "E. coli ATCC 25922", "type": "cell-based, Escherichia coli", "details": "for MIC: Escherichia coli, ATCC25922, read-out: Minimal Inhibitory Concentration, E. coli ATCC 25922", "procedure": "(§1) The process for preparing susceptibility test medium are the following steps: • a. Preparing Mueller Hinton Broth II medium by adding 22 grams powdered media to 1.0 liter distilled water; • b. Autoclaving (121° C., 15 psi, 15 minutes) and cooling the medium; • c. Adding Oxyrase® up to about 10% final volume and keeping at 35-37° C. in an incubator for 30 minutes; • d. Adding about 50 μL to each well of a 96 well microtiter plate; • e. Weighing drug and adding broth to drug to bring up to about (standard 128 μg/ml); • f. Adding 50 μL of the drug to the first column of the titer plate; • g. Diluting by two-fold serial diluting across or down the plate. • h. Preparing a Prompt™ inoculum at 10^8 CFU/ml; • i. Diluting inoculum 1:100 in the broth at […] in 9.9 ml (1:100) is 10^6 colony forming units (CFU) forming the adjusted inoculum; • j. Adding 50 μL of the adjusted inoculum to the wells of the microtiter plate; • k. Incubating the plates at 35-37° C. for 18-22 hours; and • l. Reading, with the unaided eye, the MIC.\n(§2) The in vitro activities of tigecycline and control antibiotics were determined by the broth microdilution method as recommended by the NCCLS. (National Committee for Clinical Laboratory Standards, 2003. Methods for Dilution Antimicrobial Susceptibility Tests for Bacteria That Grow Aerobically; Approved Standards: M7-A6, Sixth ed, vol. 23., National Committee for Clinical Laboratory Standards Wayne, Pa.) was used for the standard procedures. MBH with 5% lysed horse blood was used for testing S. pneumoniae and Haemophilus Test Medium was used for testing H. influenzae. Oxyrase® (Oxyrase Inc, Mansfield, Ohio) was used according to the manufacturer's instructions by adding 1 ml of Oxyrase® to 50 ml of media. Media age studies were performed by preparing MHB in multiple flasks, then storing the media under various conditions. MICs were usually performed in duplicate on each day of testing. Storage under anaerobic conditions was conducted in an anaerobic chamber (MACS MG 1000, Don Whitley Scientific LTD). The pH of the media was determined by pH meter (Corning 430). A comparison of the in vitro activity of tigecycline by agar and broth dilution methodolgies with and without Oxyrase® against clinical isolates is shown in Table 1."}, "[1]": {"system": "S. pneumoniae GC4465 (Clinical)", "type": "cell-based", "details": "Streptococcus pneumoniae, read-out: Minimal Inhibitory Concentration", "procedure": "as §1, §2"}, "[2]": {"system": "S. pyogenes GC4563 (Clinical)", "type": "cell-based", "details": "Streptococcus pyogenes, read-out: Minimal Inhibitory Concentration", "procedure": "as §1, §2"}, "[3]": {"system": "Staphylococcus aureus GC6467 Clinical - tet(M) + (K)", "type": "cell-based", "details": "S. aureus GC6467 tet(M) + (K)", "procedure": "as §1, §2"}, "H. influenzae ATCC 49247": {"system": "H. influenzae ATCC 49247", "type": "cell-based", "procedure": "as §1\nas §2, with “MBH with 5% lysed horse blood was used for testing S. pneumoniae and Haemophilus Test Medium was used for testing H. influenzae.” left out"}, "[4]": {"details": "Table 8, E. coli ATCC 25922, Mueller Hinton Broth + Oxyrase, n = 240"}, "[5]": {"details": "Table 8, E. coli ATCC 25922, Mueller Hinton Broth, n = 320"}, "[6]": {"details": "Table 9, E. coli ATCC 25922, Mueller Hinton Broth + Oxyrase, n = 33"}, "[7]": {"details": "Table 9, E. coli ATCC 25922, Mueller Hinton Broth, n = 90"}, "[8]": {"details": "336 h, Aged Media (two weeks at RT)"}, "[9]": {"details": "Table 8, Mueller Hinton Broth + Oxyrase, n = 240"}, "[10]": {"details": "Table 8, Mueller Hinton Broth, n = 210"}}, "note": "Read-outs that look alike come from different tables or passages of the source."}
{"molecule": "CN(C)c1cc(NC(=O)CNC(C)(C)C)c(O)c2c1C[C@H]1C[C@H]3[C@H](N(C)C)C(O)=C(C(N)=O)C(=O)[C@@]3(O)C(O)=C1C2=O", "note": "[Tigecycline, tigecycline]", "values": [{"measurement": "MIC", "setting": "E. coli ATCC 25922; No Oxyrase", "result": 0.12, "unit": "µg/mL"}, {"measurement": "MIC", "setting": "E. coli ATCC 25922; media Aged Anaerobic, N = 4", "result": "0.03 to 0.06", "unit": "µg/mL"}, {"measurement": "Number of Occurrences of MIC 0.06 ug/ml", "setting": "E. coli ATCC 25922; [4]", "result": 130}, {"measurement": "Number of Occurrences of MIC 0.12 ug/ml", "setting": "E. coli ATCC 25922; [4]", "result": 103}, {"measurement": "Number of Occurrences of MIC 0.25 ug/ml", "setting": "E. coli ATCC 25922; [4]", "result": 5}, {"measurement": "Number of Occurrences of MIC 1 ug/ml", "setting": "E. coli ATCC 25922; [4]", "result": 2}, {"measurement": "Number of Occurrences of MIC 0.12 ug/ml", "setting": "E. coli ATCC 25922; [5]", "result": 24}, {"measurement": "Number of Occurrences of MIC 0.25 ug/ml", "setting": "E. coli ATCC 25922; [5]", "result": 210}, {"measurement": "Number of Occurrences of MIC 0.5 ug/ml", "setting": "E. coli ATCC 25922; [5]", "result": 23}, {"measurement": "Number of Occurrences of MIC 1 ug/ml", "setting": "E. coli ATCC 25922; [5]", "result": 58}, {"measurement": "Number of Occurrences of MIC 2 ug/ml", "setting": "E. coli ATCC 25922; [5]", "result": 4}, {"measurement": "Number of Occurrences of MIC 4 ug/ml", "setting": "E. coli ATCC 25922; [5]", "result": 1}, {"measurement": "Number of Occurrences of MIC 0.03 ug/ml", "setting": "E. coli ATCC 25922; [6]", "result": 3}, {"measurement": "Number of Occurrences of MIC 0.06 ug/ml", "setting": "E. coli ATCC 25922; [6]", "result": 13}, {"measurement": "Number of Occurrences of MIC 0.12 ug/ml", "setting": "E. coli ATCC 25922; [6]", "result": 14}, {"measurement": "Number of Occurrences of MIC 0.25 ug/ml", "setting": "E. coli ATCC 25922; [6]", "result": 3}, {"measurement": "Number of Occurrences of MIC 0.06 ug/ml", "setting": "E. coli ATCC 25922; [7]", "result": 1}, {"measurement": "Number of Occurrences of MIC 0.12 ug/ml", "setting": "E. coli ATCC 25922; [7]", "result": 15}, {"measurement": "Number of Occurrences of MIC 0.25 ug/ml", "setting": "E. coli ATCC 25922; [7]", "result": 47}, {"measurement": "Number of Occurrences of MIC 0.5 ug/ml", "setting": "E. coli ATCC 25922; [7]", "result": 27}, {"measurement": "MIC", "setting": "[1]; [8]", "result": 0.03, "unit": "µg/mL"}, {"measurement": "MIC", "setting": "[1]; Fresh Media", "result": "< 0.008", "unit": "µg/mL"}, {"measurement": "MIC", "setting": "[2]; [8]", "result": 0.03, "unit": "µg/mL"}, {"measurement": "MIC", "setting": "[2]; Fresh Media", "result": "< 0.008", "unit": "µg/mL"}, {"measurement": "In Vitro Activity of Tigecycline", "setting": "[3]; Oxyrase (2%)", "result": 0.50}, {"measurement": "In Vitro Activity of Tigecycline", "setting": "[3]; no Oxyrase", "result": 1}, {"measurement": "Number of Occurrences of MIC 0.008 ug/ml", "setting": "H. influenzae ATCC 49247; [9]", "result": 2}, {"measurement": "Number of Occurrences of MIC 0.016 ug/ml", "setting": "H. influenzae ATCC 49247; [9]", "result": 1}, {"measurement": "Number of Occurrences of MIC 0.06 ug/ml", "setting": "H. influenzae ATCC 49247; [9]", "result": 4}, {"measurement": "Number of Occurrences of MIC 0.12 ug/ml", "setting": "H. influenzae ATCC 49247; [9]", "result": 156}, {"measurement": "Number of Occurrences of MIC 0.25 ug/ml", "setting": "H. influenzae ATCC 49247; [9]", "result": 75}, {"measurement": "Number of Occurrences of MIC 0.5 ug/ml", "setting": "H. influenzae ATCC 49247; [9]", "result": 2}, {"measurement": "Number of Occurrences of MIC 0.12 ug/ml", "setting": "H. influenzae ATCC 49247; [10]", "result": 13}, {"measurement": "Number of Occurrences of MIC 0.25 ug/ml", "setting": "H. influenzae ATCC 49247; [10]", "result": 156}, {"measurement": "Number of Occurrences of MIC 0.5 ug/ml", "setting": "H. influenzae ATCC 49247; [10]", "result": 25}, {"measurement": "Number of Occurrences of MIC 1 ug/ml", "setting": "H. influenzae ATCC 49247; [10]", "result": 10}, {"measurement": "Number of Occurrences of MIC 2 ug/ml", "setting": "H. influenzae ATCC 49247; [10]", "result": 6}]}
